What was measured:
[1] = tested on: FcϵRI; details: Lin, H. et al. (2004); cited from earlier work
[2] = tested on: blood basophils; experiment: Blood basophil numbers and HLA-DR expression in SLE patients under immunosuppressive treatments; format: in vivo, human; details: low dose (≤7.5 mg/day) vs medium to high dose (>7.5 mg/day) prednisone
Method: Blood was harvested in EDTA-coated tubes. 4 ml of blood was used to harvest plasma sample. For this purpose, blood was centrifugated at 600×g for 20 minutes at 4° C. Plasma phase was then harvested, and samples kept at […] until further analysis. For basophils analysis, 10 ml of whole blood were added to 20 ml of ACK lysing buffer and incubated 5 min at room temperature and 5 more minutes on ice. 30 ml of PBS was added, and cells were centrifuged (500×g, 5 min). This step was repeated three times total until no more red blood cells were visible. Cells were then resuspended into 10 ml (original volume) of FACS buffer (PBS/1% BSA/0.05% NaN3). Number of leukocytes per ml and viability were assessed with a ViCell cell counter (Beckman and Coulter). Viability was always over 90%. Cells were then processed for extracellular staining with the indicated surface markers. For basophil absolute counts, basophils were identified as FcϵRIα^+CD203c^+CD123^+CD11b^+ cells. For HLA-DR expression analysis, basophils were identified as FcϵRI^+CD203c^+CD11b^+. For CD62L expression analysis, basophils were identified as FcϵRIα^+CD203c^+CD123^+.

| Compound | FcϵRI expression on basophils [1] | HLA-DR expressing basophils [2] | number of peripheral basophils [2] |
| --- | --- | --- | --- |
| omalizumab: recombinant DNA-derived humanized IgG monoclonal antibody that selectively binds to human immunoglobulin E (IgE) | decreases FcϵRI expression on basophils | – | – |
| C[C@]12C=CC(=O)C=C1CC[C@@H]1[C@@H]2C(=O)C[C@@]2(C)[C@H]1CC[C@]2(O)C(=O)CO [prednisone] | – | no difference | no difference |
